The values that follow come from patent US4514330A, “Carbon-7-substituted atinomycin D analogue” (Trustees of Boston University, priority 1983, dated 1985).

In brackets after ≈: the same amount, converted by molar mass. Where two headings read alike, the source gives them in different places.

Series [1] relates to DNA. As to conditions: known analogues; cited from earlier work.
Series [2] relates to DNA. Kind of series: Thermal denaturation of DNA (ΔTm), stabilization of DNA helical structure on drug binding. On the set-up: species or system calf thymus. The conditions noted are these: for Tm (ΔTm = Tm of DNA-drug complex minus Tm of DNA): drug 1.4 × 10^-4 M, DNA (P) 1.4 × 10^-3 M, 0.01 M phosphate buffer pH 7.0, EDTA, 5% dimethyl sulfoxide. How it is done: Thermal denaturation studies were carried out according to the procedure described in J. Med. Chem., Vol. 24, p. 1052 (1981). The ΔTm values in Table II give a measure of stabilization of DNA helical structure as a consequence of drug binding.
^a ΔTm = m of DNAdrug complex minus m of DNA.
Concentraiton of drug, 1.4 × 10^-4 M; of DNA (P), 1.4 ×
10^-3 M in 0.01 M phosphate buffer (pH 7.0), 5 × 10^-3 M in
EDTA and 5% dimethyl sulfoxide.
^d Highest dose tested. These values are derived at high temperatur
(67°-75° C.) and may not always correlate with the results
of other DNA-binding studies (e.g., absorptiometric or circular dichroic).
Melting points were obtained with a Thomas-Hoover melting point apparatus at a heating rate of 2° C./min. Column chromatography was accomplished with silica gel powder (Baker No. 3405, 60-20 mesh) or acid alumina (Woelm grade 1). Limited gel-filtration work was done on Sephadex LH-20, particle size 25-100 μm (Pharmacia Fine Chemicals). Thin-layer chromatography was performed on silica gel plates (E. M. Laboratories, Inc.). Solvent systems used were (A) butanol-formic acid-H2 O (75:13:12), (B) EtOAc-acetone (3:1), and (C) Cifferri, the organic phase of the mixture EtOAc-MeOH-H2 O (20:1:20). High-performance liquid chromatography was carried out on a Varian Model 5020 gradient liquid chromatograph equipped with CD-111L chromatography data system and fitted with Varian reversed-phase C18 column with isocratic solvent systems, CH3 -CN-5 mM NH4 OAc buffer, pH 6.4 (68:32 or 62:38), pressure 80-140 atm, flow rate 1.5 mL/min, with UV-visible variable and fixed wavelength dual detectors at 254 and 466 nm. Spectra were determined on the following instruments: IR spectra were obtained with a Perkin-Elmer Model 237 Infra Cord with KBr micropellets or chloroform solutions; UV-visible spectra were obtained on a Gilford 250 spectrophotometer, which, with the addition of a base-line reference compensator (Analog Multiplexer 6064) and thermoprogrammer, auto four cell programmer and thermoelectric cell holder 2577, was used to obtain thermal denaturation curves; NMR spectra were obtained on a JOEL FQ-90-90MHZ spectrometer equipped with Fourier transform; and CD spectra were obtained on a Cary 61 spectrophotometer. All elemental analyses were within ±0.4% of the theoretical values. Actinomycin D, batch no. NCS 3053, lot L554651-0-10, was provided by Natural Products Branch, National Cancer Institute, Silver Spring, Md. Calf thymus DNA type 1 was purchased from Sigma Chemical Co.

Series [3] deals with DNA. Kind of series: DNA-binding mode, covalent and noncovalent (statements).
Series [4] relates to normal CDF1 male mice. Kind of series: Maximum tolerated dose (LD10) in normal, tumor-free CDF1 male mice. In kind it is in vivo. The conditions noted are these: for MTD (maximum tolerated dose, lethal for 10% of normal mice; = LD10): deaths during 21 days. On the procedure: ^c MTD (maximum tolerated dose) is the lethal dose
(milligrams/kilogram) for 10% normal CDF1 male mice (18-23 g);
were calculated from a plot of log dose vs. percent mortality. Average of
two to three experiments.
Biological Experiments. Determination of LD10 Values. Tumor-free CDF1 male mice weighing 18-23 g were given a broad range of doses of drugs in 10% dimethyl sulfoxide-saline on either days 1, 5 and 9 or on 4 successive days. Drugs were administered intraperitoneally (ip).
The maximum tolerated doses of AMD and analogues that caused deaths in only 10% of the tested animals in 21 days were recorded as MTD. The results are an average of two experiments in each. The MTD values obtained following schedules q4d 1, 5, 9 (three injections) and qd 1-4 (four injections) are recorded in Table IV. These doses are the same as LD10 (lethal dose of 10% of tumor-free animals in 21 days).

The test system of series [5] is P-388 leukemia. Nature of the series: In vivo antitumor activity against P-388 lymphocytic leukemia in CDF1 mice. As to conditions: for % ILS (percent increase in life span) / MST (median survival time) / cure (over 55 day survivors): days 1, 5, 9; for minimal effective dose: Mus musculus, P388, ip, read-out: MED (minimum effective dose, 40% increase in life span over control). How it is done: Studies on in vivo activity of AMD and AMD analogues were carried out with P-388 lymphocytic leukemia in CDF1 hybrid mice. The drugs were administered either daily for 4 successive days (qd 1-4) or on days 1, 5 and 9 (q4d 1, 5, 9) beginning 1 day after tumor implantation.
^a Male CDF1 (18-23 g) mice were inoculated intraperitoneally
(ip) with 10^6 P388 cells on day 0. Drugs were administered, also ip,
in 10% dimethyl sulfoxidesaline on days 1, 5 and 9. Test solutions were
kept at 0-4° C., protected from light, and the stability and
homogeneity were checked periodically by TLC and HPLC.
^b MST = median survival time.
^c % ILS = percent increase in life span.
^d Over 55 day survivors. Average of three experiments. The
^a Drugs administed ip once daily either for 4 successive days (qd
1-4) or on days 1, 5 and 9 (q4d 1, 5 9), starting 1 day after tumor
^b MED (minimum effective dose) is the dose (milligrams/kilogram)
providing an increase in life span of 40% over control in P388

Series [6] has as its system human lymphoblastic leukemic cells (CCRF-CEM). Kind of series: In vitro growth-inhibitory activity against human lymphoblastic leukemic cells (CCRF-CEM) in log phase. It counts as cell-based. As to conditions: for IC50: Homo sapiens.
Protocol: ^b Using human lymohoblastic leukemia cells in logplastic growth.
Compounds were dissolved in Me2 So medium, final growth medium
In series [7] the test system is calf thymus DNA. Kind of series: DNA binding by visible absorption and CD spectra of DNA (P)-drug complex. The conditions noted are these: mole ratio DNA (P)/analogue = 10:1; 3b, 4b and 5b compared; 1.0×10^-5 M, pH 7. From the text:
In FIG. 1, absorption (top) and circular dichroism (bottom) spectra in 0.01 M phosphate buffer (pH7) containing EDTA (10^-5 M) and Me2 SO (5%): 3b (...), 4b (---), 5b (--). Concentration of drug in each case was 1.0×10^-5 M. In this respect, they are almost indistinguishable from the known analogue 7-methoxyactinomycin D (5b), whose structure and physical properties we have previously reported. The absorption spectra of all these analogues in aqueous buffer are also almost superimposable. […] The absorption spectrum of the analogues above 240 nm is mainly due to the electronic configuration of the tricyclic chromophore. The CD spectrum in the same wavelength region is an indicator of peptide conformation in actinomycin analogues, because it is the peptide lactone ring that confers optical activity on the nearly planar chromophore. The nature of the CD spectra (3b, 4b and 5b) asserts that in these analogues there is an identical relationship between the chromophores and peptide lactones. This relationship is very important, because during binding to DNA, AMD and some analogues are known to rely on the cooperative role between the chromophore and the peptide lactones for their highly specific DNA-binding property.
Any change in the configurations of the peptide lactones on binding to DNA is generally expressed in the CD spectra of the analogue-DNA complexes. […] The changes in the visible absorption spectra of 3b, 4b and 5b and also their CD spectra observed after adding calf thymus DNA [mole ratio of DNA (P)/analogue=10:1] are identical (FIG. 2). In FIG. 2, the absorption (top) and CD spectra of the DNA (P)-drug complex (ratio 10:1). Concentrations, buffer and line types are as in FIG. 1.

Where [8] appears, read: three injections ip, q4d 1, 5, 9.

In the case of `Cc1c2oc3c(C)c(N)cc(C(=O)N[C@@H]4C(=O)N[C@H](C(C)C)C(=O)N5CCC[C@H]5C(=O)N(C)CC(=O)N(C)[C@@H](C(C)C)C(=O)O[C@@H]4C)c3nc-2c(C(=O)N[C@@H]2C(=O)N[C@H](C(C)C)C(=O)N3CCC[C@H]3C(=O)N(C)CC(=O)N(C)[C@@H](C(C)C)C(=O)O[C@@H]2C)c(N)c1=O` [7-aminoactinomycin D], in series [1], the “mode of DNA binding, same way as AMD” value is “by intercalation of the chromophore and concomitant hydrogen and hydrophobic interactions of the peptide lactones”.
Turning to `CCN(CC)C(=O)c1c2nc3c(C(=O)N(CC)CC)ccc(C)c3oc-2c(C)c(=O)c1N` [Compound 1a, reference compound], in series [2], the “Tm (ΔTm = Tm of DNA-drug complex minus Tm of DNA)” value worked out at 0 °C. For the same molecule, the DNA-binding related activity entry in series [3] is “no DNA-binding related activity”.
Regarding `CCN(CC)C(=O)c1c2nc3c(C(=O)N(CC)CC)cc(O)c(C)c3oc-2c(C)c(=O)c1N` [Compound 2a], the “Tm (ΔTm = Tm of DNA-drug complex minus Tm of DNA)” value in series [2] stood at 0 °C.
In the case of `Cc1c2oc3c(C)c(O)cc(C(=O)N[C@@H]4C(=O)N[C@H](C(C)C)C(=O)N5CCC[C@H]5C(=O)N(C)CC(=O)N(C)[C@@H](C(C)C)C(=O)O[C@@H]4C)c3nc-2c(C(=O)N[C@@H]2C(=O)N[C@H](C(C)C)C(=O)N3CCC[C@H]3C(=O)N(C)CC(=O)N(C)[C@@H](C(C)C)C(=O)O[C@@H]2C)c(N)c1=O` [Compound 2b, 7-hydroxyactinomycin D, reference compound], in series [2], the “Tm (ΔTm = Tm of DNA-drug complex minus Tm of DNA)” value is 6.7 ± 0.15 °C. The “DNA melting profile / ΔTm character of the DNA complex” value in series [2] (thermal denaturation, words) was “sharp and smooth”. For the same molecule, the “MTD (maximum tolerated dose, lethal for 10% of normal mice; = LD10)” value came to 2.0 milligrams/kilogram in series [4] (four injections ip, qd 1-4) and 4.2 milligrams/kilogram in series [4] (setting [8]). Besides, in series [4] (q4d 1, 5, 9 schedule), the “MTD dose as multiple of the MTD dose for AMD” value turned out to be 17 fold. Further, in series [4] (qd 1-4 schedule), the “fold less toxic than AMD” value is given as 13 fold. Also, the “% ILS (percent increase in life span)” value in series [5] (0.15 mg/kg ip) is given as 10%; in series [5] (0.30 mg/kg ip), 55%; in series [5] (0.60 mg/kg ip), 89%; in series [5] (1.20 mg/kg ip), 127%; in series [5] (1.80 mg/kg ip) it was 136%; in series [5] (3.00 mg/kg ip), 37%. In addition, the “MST (median survival time)” value was 12 days in series [5] (0.15 mg/kg ip); 17 days in series [5] (0.30 mg/kg ip); 21 days in series [5] (0.60 mg/kg ip); 25 days in series [5] (1.20 mg/kg ip); 26 days in series [5] (1.80 mg/kg ip); 15 days in series [5] (3.00 mg/kg ip). Besides, the “cure (over 55 day survivors)” value in series [5] (0.15 mg/kg ip), in series [5] (0.30 mg/kg ip), in series [5] (0.60 mg/kg ip), in series [5] (1.20 mg/kg ip), in series [5] (1.80 mg/kg ip) and in series [5] (3.00 mg/kg ip) was 0/7 each time. Besides, the minimal effective dose in series [5] (four injections ip, qd 1-4) was determined as 0.2 mg/kg; in series [5] (setting [8]) it was 0.275 mg/kg. In addition, the “therapeutic index: MTD/MED” value in series [5] (four injections ip, qd 1-4) was determined as 10; in series [5] (setting [8]), 15. Moreover, the “activity in respect of % ILS, 1b versus 2b” value in series [5] (ip, q4d 1, 5, 9) is on record as “approximately equiactive”. Moreover, the “dose higher than AMD needed for equiactivity” value in series [5] (ip, q4d 1, 5, 9) was over 14 fold. In series [6] (final growth medium contained 1% Me2SO, log phase, read-out: ID50 (in vitro growth inhibition, CCRF-CEM)), the IC50 is 0.95 µg/mL (≈ 0.747 µM).
For the molecule `CCN(CC)C(=O)c1c2nc3c(C(=O)N(CC)CC)cc(OCC4CO4)c(C)c3oc-2c(C)c(=O)c1N` (stereo not drawn) [Compound 3a], the “Tm (ΔTm = Tm of DNA-drug complex minus Tm of DNA)” value in series [2] came to 0 °C. Besides, the “fold less toxic compared to AMD and its analogues” value in series [6] is “more than 1000 fold”. In addition, the IC50 in series [6] (read-out: ID50 (the source's name)) was 9 µg/mL (≈ 17.6 µM).
Take `CCN(CC)C(=O)c1c2nc3c(C(=O)N(CC)CC)cc(OCC(O)CO)c(C)c3oc-2c(C)c(=O)c1N` (stereo not drawn) [Compound 4a]: the “Tm (ΔTm = Tm of DNA-drug complex minus Tm of DNA)” value in series [2] turned out to be 0 °C. In series [6], the “fold less toxic compared to AMD and its analogues” value is “more than 1000 fold”.
As to `COc1cc(C(=O)N[C@@H]2C(=O)N[C@H](C(C)C)C(=O)N3CCC[C@H]3C(=O)N(C)CC(=O)N(C)[C@@H](C(C)C)C(=O)O[C@@H]2C)c2nc3c(C(=O)N[C@@H]4C(=O)N[C@H](C(C)C)C(=O)N5CCC[C@H]5C(=O)N(C)CC(=O)N(C)[C@@H](C(C)C)C(=O)O[C@@H]4C)c(N)c(=O)c(C)c-3oc2c1C` [Compound 5b, 7-methoxyactinomycin D, reference compound], the “changes in visible absorption and CD spectra after adding calf thymus DNA” value in series [7] is listed as “identical”.
`Cc1c2oc3c(C)c([N+](=O)[O-])cc(C(=O)N[C@@H]4C(=O)N[C@H](C(C)C)C(=O)N5CCC[C@H]5C(=O)N(C)CC(=O)N(C)[C@@H](C(C)C)C(=O)O[C@@H]4C)c3nc-2c(C(=O)N[C@@H]2C(=O)N[C@H](C(C)C)C(=O)N3CCC[C@H]3C(=O)N(C)CC(=O)N(C)[C@@H](C(C)C)C(=O)O[C@@H]2C)c(N)c1=O` [Compound 7-nitro-, 7-nitro-]: the “mode of DNA binding, same way as AMD” value in series [1] was “by intercalation of the chromophore and concomitant hydrogen and hydrophobic interactions of the peptide lactones”.
